Data set [1] has as its system Human immunodeficiency virus 1. As to the kind of experiment: Antiviral activity against HIV1 3B infected in human MT4 cells assessed as protection against virus-induced cytopathic effect incubated for 5 days by MTT assay. It is filed as functional, organism-based. The following applies: Human immunodeficiency virus 1, 3B, MT4, 120 h. (Damage to the host cells serves as the signal in cytopathic effect assays.)

Data set [2] can be described thus: Cytotoxicity against human MT4 cells assessed as reduction in cell viability measured after 5 days by MTT assay. It is filed as toxicity, cell-based. The following applies: time 5 day. On the technique in general: Tetrazolium dyes change colour on reduction, which living cells bring about.
Data set [3] addresses Human immunodeficiency virus type 1 reverse transcriptase (Human immunodeficiency virus 1, UniProt Q72547). As to the kind of experiment: Inhibition of wild-type recombinant HIV-1 group M subtype B BH10 reverse transcriptase RNase-associated RNase H activity expressed in Escherichia coli XL1 blue using 32P-labeled 5'-UUUUUUUUUAGGAUACAUAUGGUUAAAGUAU-3'/5'-ATACTTTAACCATATGTATCC-3' RNA/DNA template-primer as substrate preincubated for 5 mins followed by substrate addition and measured after 15 mins by phosphorimaging analysis.

Data set [4] addresses Human immunodeficiency virus type 1 reverse transcriptase (Human immunodeficiency virus 1) (UniProt Q72547). As to the kind of experiment: Potency index, ratio of beta-thujaplicinol IC50 to test compound IC50 for inhibition of wild-type recombinant HIV-1 group M subtype B BH10 reverse transcriptase RNase-associated RNase H activity expressed in Escherichia coli XL1 blue.
The test system of data set [5] is Human immunodeficiency virus 2. As to the kind of experiment: Antiviral activity against HIV2 ROD infected in human MT4 cells assessed as protection against virus-induced cytopathic effect incubated for 5 days by MTT assay. In kind it is functional, organism-based. The following applies: Human immunodeficiency virus 2, ROD, MT4, 120 h.
Data set [6] is described as follows: Apparent permeability across apical to basolateral side in human Caco-2 cells at 2 uM measured after 2 hrs by LC-MS/MS analysis. It is filed as ADME, cell-based. For orientation: Passage across Caco-2 layers is used to estimate intestinal permeability.
The target of data set [7] is Human immunodeficiency virus type 1 reverse transcriptase (Human immunodeficiency virus 1) (UniProt Q72547). As to the kind of experiment: Inhibition of wild-type recombinant HIV-1 group M subtype B BH10 reverse transcriptase RNase-associated RNase H activity expressed in Escherichia coli XL1 blue at 100 uM using 32P-labeled 5'-[…]-3'/5'-[…]-3' RNA/DNA template-primer as substrate preincubated for 5 mins followed by substrate addition and measured after 15 mins by phosphorimaging analysis relative to control. The conditions noted are these: time 20.0 min.

pEC50, pIC50: −log10 of the molar value.

Consider `Cc1ccnc2c1NC(=O)c1cccnc1N2C1CC1` [NEVIRAPINE], for which the pEC50 in data set [1] is 6.77. For the same molecule, in data set [2], the CC50 at 120 h was more than 15 µM.

For `Nc1ccc(S(=O)(=O)N2CCN(C(=O)c3cc(O)c(O)c(O)c3)C(C(=O)NCc3ccco3)C2)cc1` (centres undefined), the negative-log IC50 (pIC50) in data set [3] was 7.17. For the same molecule, the Ratio IC50 in data set [4] was found to be 30. Besides, the pEC50 in data set [1] and in data set [5] was less than 4.61 throughout. In data set [2], the CC50 at 120 h came out at 24.7 µM. Besides, the Papp A→B at 2 h, 2 µM in data set [6] was 0.2 ×10⁻⁶ cm/s.

Turning to `Nc1ccc(S(=O)(=O)N2CCN(C(=O)c3cc(O)c(O)c(O)c3)C(C(=O)NCc3ccc(-c4ccccc4)cc3)C2)cc1` (centres undefined), the pIC50 in data set [3] is less than 4.00. For the same molecule, the pEC50 in data set [1] and in data set [5] was less than 3.68 each time. In data set [2], the CC50 at 120 h is 207 µM. For the same molecule, the inhibition in data set [7] stood at 47.6%.

`Nc1ccn([C@@H]2CS[C@H](CO)O2)c(=O)n1` [LAMIVUDINE]: the CC50 at 120 h in data set [2] is more than 87.3 µM.

For the molecule `COc1ccc(CNC(=O)C2CN(C(=O)c3cc(O)c(O)c(O)c3)CCN2S(=O)(=O)c2ccc(N)cc2)cc1` (centres undefined), in data set [3], the pIC50 was 6.85. Moreover, the pEC50 in data set [1] and in data set [5] was less than 4.69 throughout. In addition, in data set [2], the CC50 at 120 h was 20.4 µM.

On to `Nc1ccc(S(=O)(=O)N2CCN(C(=O)c3cc(O)c(O)c(O)c3)C(C(=O)NCc3cccs3)C2)cc1` (centres undefined), for which, in data set [3], the pIC50 is less than 4.00. Also, the pEC50 was less than 3.63 in data set [1] and less than 3.78 in data set [5]. Besides, the CC50 at 120 h in data set [2] amounted to 167 µM. Also, the inhibition in data set [7] is 45%.

On to `CN(C(=O)C1CN(S(=O)(=O)c2ccc(C#N)cc2)CCN1C(=O)c1cc(O)c(O)c(O)c1)c1ccccc1` (centres undefined), for which the pIC50 in data set [3] is 6.51. In addition, the negative-log EC50 (pEC50) in data set [1] and in data set [5] was less than 3.95 in each case. Moreover, in data set [2], the CC50 at 120 h worked out at 113 µM.

In the case of `N#Cc1ccc(S(=O)(=O)N2CCN(C(=O)c3cc(O)c(O)c(O)c3)C(C(=O)NCc3ccco3)C2)cc1` (centres undefined), the pIC50 in data set [3] is less than 4.70. In addition, the pEC50 in data set [1] and in data set [5] was less than 3.97 each time. Besides, the CC50 at 120 h in data set [2] turned out to be 108 µM. In addition, in data set [7], the inhibition stood at 57.1%.

For the molecule `Nc1ccc(S(=O)(=O)N2CCN(C(=O)c3cc(O)c(O)c(O)c3)CC2C(=O)NCc2cccc3ccccc23)cc1` (centres undefined), the pIC50 in data set [3] is 6.66. Further, the pEC50 in data set [1] and in data set [5] was less than 4.67 throughout. In addition, the CC50 at 120 h in data set [2] is 21.6 µM.

Consider `CN(C(=O)C1CN(S(=O)(=O)c2ccc(N)cc2)CCN1C(=O)c1cc(O)c(O)c(O)c1)c1ccccc1` (centres undefined), for which, in data set [3], the pIC50 was 6.00. In addition, the pEC50 in data set [1] and in data set [5] was less than 3.62 in each case. In addition, in data set [2], the CC50 at 120 h was found to be 237 µM.

For the molecule `COCCc1ccc(OCC(O)CNC(C)C)cc1` (centres undefined) [METOPROLOL], the Papp A→B at 2 h, 2 µM in data set [6] is less than 0.48 ×10⁻⁶ cm/s.

Consider `COc1ccc(CNC(=O)C2CN(S(=O)(=O)c3ccc(N)cc3)CCN2C(=O)c2cc(O)c(O)c(O)c2)cc1` (centres undefined), for which the negative logarithm of the IC50 (pIC50) in data set [3] is 6.57. For the same molecule, the pEC50 in data set [1] and in data set [5] was less than 4.66 throughout. Moreover, in data set [2], the CC50 at 120 h was 21.7 µM.

With `N#Cc1ccc(S(=O)(=O)N2CCN(C(=O)c3cc(O)c(O)c(O)c3)C(C(=O)NCc3ccc(-c4ccccc4)cc3)C2)cc1` (centres undefined), the pIC50 in data set [3] is 6.39. Also, the pEC50 in data set [1] and in data set [5] was less than 5.10 in each case. In addition, the 50% cytotoxic concentration (CC50) at 120 h in data set [2] was found to be 7.9 µM.

In the case of `Nc1ccc(S(=O)(=O)N2CCN(C(=O)c3cc(O)c(O)c(O)c3)CC2)cc1`, the pIC50 in data set [3] was 6.14. Further, the pEC50 in data set [1] and in data set [5] was less than 4.74 each time. In data set [2], the CC50 at 120 h amounted to 18 µM.

Regarding `Nc1ccc(S(=O)(=O)N2CCN(C(=O)c3cc(O)c(O)c(O)c3)CC2C(=O)Nc2ccccc2)cc1` (centres undefined), in data set [3], the pIC50 was 6.25. The pEC50 in data set [1] and in data set [5] was less than 4.72 throughout. Besides, the CC50 at 120 h in data set [2] was 19.1 µM.

For the molecule `CC(C)(C)OC(=O)N1CCC2(CCN(C(=O)C3CN(C(=O)c4cc(O)c(O)c(O)c4)CCN3S(=O)(=O)c3ccc(N)cc3)C2)C1` (centres undefined), the pIC50 in data set [3] is 6.74. The pEC50 in data set [1] and in data set [5] was less than 4.38 throughout. For the same molecule, the CC50 at 120 h in data set [2] turned out to be 42 µM.

For the molecule `Nc1ccc(S(=O)(=O)N2CCN(C(=O)c3cc(O)c(O)c(O)c3)C(C(=O)Nc3ccccc3)C2)cc1` (centres undefined), the pIC50 in data set [3] is 6.48. In addition, the pEC50 in data set [1] and in data set [5] was less than 4.29 each time. Besides, in data set [2], the CC50 at 120 h is 50.8 µM.

As for `COc1ccc(CNC(=O)C2CN(S(=O)(=O)c3ccc(C#N)cc3)CCN2C(=O)c2cc(O)c(O)c(O)c2)cc1` (centres undefined), the pIC50 in data set [3] is less than 5.00. Moreover, the pEC50 in data set [1] and in data set [5] was less than 4.67 throughout. Further, the CC50 at 120 h in data set [2] came out at 21.4 µM. In addition, in data set [7], the inhibition is 81.4%.

On to `N#Cc1ccc(S(=O)(=O)N2CCN(C(=O)c3cc(O)c(O)c(O)c3)C(C(=O)Nc3ccccc3)C2)cc1` (centres undefined), for which the pIC50 in data set [3] is less than 4.70. In addition, the pEC50 in data set [1] and in data set [5] was less than 3.88 throughout. The CC50 at 120 h in data set [2] amounted to 130 µM. In addition, the inhibition in data set [7] turned out to be 60.6%.

As for `N#Cc1ccc(S(=O)(=O)N2CCN(C(=O)c3cc(O)c(O)c(O)c3)C(C(=O)NCc3ccc4ccccc4c3)C2)cc1` (centres undefined), the negative-log IC50 (pIC50) in data set [3] was less than 4.70. In addition, the pEC50 in data set [1] and in data set [5] was less than 3.67 in each case. Further, the CC50 at 120 h in data set [2] was found to be 213 µM. Also, in data set [7], the inhibition was 71.9%.

As for `Nc1ccc(S(=O)(=O)N2CCN(C(=O)c3cc(O)c(O)c(O)c3)CC2C(=O)NCc2cccs2)cc1` (centres undefined), in data set [3], the pIC50 was less than 4.00. The pEC50 in data set [1] and in data set [5] was less than 3.63 each time. In addition, the CC50 at 120 h in data set [2] came to 235 µM. In data set [7], the inhibition was found to be 39.6%.

In the case of `Nc1ccc(S(=O)(=O)N2CCN(C(=O)c3cc(O)c(O)c(O)c3)CC2C(=O)NCc2ccc(-c3ccccc3)cc2)cc1` (centres undefined), in data set [3], the pIC50 was 6.47. Also, the pEC50 in data set [1] and in data set [5] was less than 4.74 each time. In addition, the CC50 at 120 h in data set [2] is 18.3 µM.

With `CC(C)c1ccc(O)c(=O)c(O)c1` [BETA-THUJAPLICINOL], the pEC50 in data set [1] and in data set [5] was less than 5.60 each time.

As to `CN(C(=O)C1CN(C(=O)c2cc(O)c(O)c(O)c2)CCN1S(=O)(=O)c1ccc(N)cc1)c1ccccc1` (centres undefined), the pIC50 in data set [3] was 5.75. In addition, the pEC50 in data set [1] and in data set [5] was less than 3.87 each time. The CC50 at 120 h in data set [2] was determined as 135 µM.

Take `Nc1ccc(S(=O)(=O)N2CCN(C(=O)c3cc(O)c(O)c(O)c3)CC2C(=O)NCc2ccco2)cc1` (centres undefined): the pIC50 in data set [3] was 6.89. Besides, the pEC50 in data set [1] and in data set [5] was less than 4.60 in each case. In addition, the CC50 at 120 h in data set [2] turned out to be 25.3 µM.

As a reminder, the pEC50 is −log10 of the EC50, conventionally taken in molar units. Broadly, the CC50 is the concentration giving 50% cytotoxicity. One may read the pIC50 as the negative decadic logarithm of the IC50, by convention in mol/L. Broadly, the Papp A→B is how fast a substance crosses the layer from the apical side. The term inhibition denotes the change of the read-out against control, counted positive when it falls.

Source of the values: ChEMBL document CHEMBL5113468, “Design, synthesis, and biological evaluation of novel double-winged galloyl derivatives as HIV-1 RNase H inhibitors” (Eur J Med Chem, 2022).
